The values below come from US10221426B2, “Constitutively active PYR/PYL receptor proteins for improving plant stress tolerance” (The Regents of the University of California, priority 2009, dated 2019).

This experiment concerns the target T1, HAB1 in the presence of PYR1 (Arabidopsis thaliana, UniProt O49686).
T1 construct: made in house; host or cells: E. coli BL21[DE3]pLysS
T1 sequence (O49686 1-191): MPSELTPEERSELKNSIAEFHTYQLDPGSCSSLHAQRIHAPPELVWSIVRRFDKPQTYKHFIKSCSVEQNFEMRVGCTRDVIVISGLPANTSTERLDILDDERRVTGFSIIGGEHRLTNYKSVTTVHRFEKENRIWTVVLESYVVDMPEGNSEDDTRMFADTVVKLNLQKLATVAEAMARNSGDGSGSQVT
T1 sequence (Q9CAJ0 23-511 partner): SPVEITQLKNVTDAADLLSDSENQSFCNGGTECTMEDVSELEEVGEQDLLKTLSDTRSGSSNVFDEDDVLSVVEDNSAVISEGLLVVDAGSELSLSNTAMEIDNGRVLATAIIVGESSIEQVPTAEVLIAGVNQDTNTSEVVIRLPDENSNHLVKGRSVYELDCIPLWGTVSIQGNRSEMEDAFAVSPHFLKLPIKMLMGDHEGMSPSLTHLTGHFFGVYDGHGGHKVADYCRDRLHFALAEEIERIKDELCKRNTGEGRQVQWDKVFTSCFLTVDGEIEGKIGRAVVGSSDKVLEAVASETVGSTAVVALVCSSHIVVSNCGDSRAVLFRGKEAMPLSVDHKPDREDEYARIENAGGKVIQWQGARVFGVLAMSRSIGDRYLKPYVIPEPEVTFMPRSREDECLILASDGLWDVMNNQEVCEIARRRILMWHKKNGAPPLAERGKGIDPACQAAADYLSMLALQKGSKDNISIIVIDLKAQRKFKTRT
Description: PP2C phosphatase assay (pNPP), GST-HAB1 in the presence of PYR1. As to conditions: 1 μM GST-HAB1, 1.5 μM 6×His-PYR1, 50 mM pNPP; read-out: IC50 of inhibition of HAB1 phosphatase activity in the presence of PYR1. The experiment is classed as biochemical. The source says: Since ABI1 and relatives are negative regulators of the ABA signaling pathway, we hypothesized that the function of the ABA-promoted PYR1-PP2C interaction was to inhibit phosphatase activity and remove a negative input into the pathway, which would then promote signaling. To test this hypothesis, we examined the effects of (+)-ABA on PP2C enzyme kinetics using recombinant GST-HAB1, 6×His-PYR1 or 6×His-PYR1^P88S using the phosphatase substrate pNPP. The ORF of Arabidopsis HAB1 was amplified by PCR from a pUni clone obtained from the ABRC and cloned into pGex-2T to create a GST-HAB1 fusion protein. Both constructs were transformed into BL21[DE3]pLysS. For expression, cells harboring pGex-GST-HAB1 were grown overnight in 20 ml LB and then inoculated to 700 ml media containing 1 mM MnCl2 and continued incubation with shaking at RT for 8 hr. Protein expression was then induced by addition of IPTG to final concentration of 0.5 mM, and cells were cultured overnight at RT. […] Immediately after mixing, reactions were monitored for hydrolysis of pNPP at A405 t˜10 second intervals over 20 minutes using a Wallac plate reader. Reaction progressions were plotted, initial velocities calculated and converted to specific activities using a standard curve for 4-nitrophenol made in the same buffer system volumes/plate reader used for enzymatic reaction measurements. […]

`CC1=CC(=O)CC(C)(C)C1(O)/C=C/C(C)=C\C(=O)O` (single isomer, unassigned; (+)) [(+)-ABA]: the IC50 amounted to 180 nM.
